Laboratory results taken from the METLIN SMRT retention time set (Domingo-Almenara et al. 2019).

Assay: gradient 5% acetonitrile 3 min, to 50% in 2 min, to 85% in 15 min, held 3 min, 100 µL/min
Details: column: Zorbax Extend-C18 2.1 x 50 mm; eluents: water / acetonitrile, 0.1% formic acid
Outline: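 Retention time was recorded from adduct peaks, which were picked computationally and each inspected manually. Pure standards ran in mixtures of ~100 molecules on HPLC coupled to a quadrupole time-of-flight mass spectrometer, in positive and negative ionization mode, through a Zorbax Extend-C18 column (2.1 × 50 mm, 1.8 μm) at 100 μL/min. Eluents were water and acetonitrile, each with 0.1% formic acid.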

| Structure (SMILES) | RP-LC retention time |
| --- | --- |
| O=C(Cc1ccc2c(c1)OCO2)N(CC1CCCO1)c1nc2c(F)cc(F)cc2s1 (stereo not drawn) | 1180 s |
| Cc1cc(C)nc(Nc2nc(C(=O)Nc3ccc(N4CCOCC4)cc3)cs2)n1 | 746 s |
| Cc1nc(-c2cc(S(=O)(=O)NCC(=O)N3CCN(c4ccccc4)CC3)c(C)s2)no1 | 896 s |
| COc1ccc(OC)c(NC(=O)N2CCc3c(c(-c4nnc(-c5ccc(F)cc5)o4)nn3C)C2)c1 | 876 s |
| Cc1nc(-c2ccc(S(=O)(=O)Nc3ccc(S(N)(=O)=O)cc3)cc2)co1 | 706 s |
| Cc1nnc(-c2ccc3ccn(CC(=O)Nc4ccc(Cl)cc4F)c3c2)o1 | 887 s |
| Cc1ccc(-c2nc(C(N)=O)c3n2CCCCC3)cc1 | 690 s |
| COc1ccc(-c2cc(N3CCN(C(=O)c4cccs4)CC3)n[nH]2)cc1 | 714 s |
| CCCN(c1ccccc1F)S(=O)(=O)c1ccc2c(c1)N(C(C)=O)CCCS2 | 993 s |
| Cc1cccc(-c2noc(-c3nnn4c3COC(c3ccc(F)cc3)C4)n2)c1 (stereo not drawn) | 1210 s |
| CCOc1ccccc1NC(=O)C1CCc2nc(N3CCCCC3)ncc2C1 (stereo not drawn) | 903 s |
| CCC1CCCCN1CCCNC(=O)Cn1ccc2cc(S(=O)(=O)N3CCCCCC3)ccc21 (stereo not drawn) | 704 s |
| CCN(Cc1ccccc1)C(=O)Cn1cccc1-c1nnc(-c2ccccc2)o1 | 1050 s |
| COc1ccc2c(c1)C1(CCN(S(=O)(=O)c3cc(F)cc(F)c3)C1)C(=O)N2 (stereo not drawn) | 872 s |
| CC1=C(c2ccc(C)cc2)S(=O)(=O)N=C1N1CCCN(C(=O)Cc2ccsc2)CC1 | 847 s |
| COc1ccc(-n2c(=O)n(C)c(=O)c3cc(C(=O)Nc4ccc(F)c(F)c4)cnc32)cc1 | 948 s |
| COc1ccc(Cl)cc1S(=O)(=O)N1CCC(C(=O)NCCO)CC1 | 629 s |
| Cn1ncc2cc3c(Nc4ccc(Cl)cc4)cccc3nc21 | 670 s |
| CN1CCCn2cc(S(=O)(=O)Nc3cc(F)cc(F)c3)cc2C1=O | 718 s |
| O=C1CCN(S(=O)(=O)c2ccccc2)CCCN(C(=O)C2(c3ccccc3)CC2)CCN1 | 758 s |
| Cc1c2c(nn1-c1ccc(SCc3cccc(F)c3)nn1)CCC2 | 1280 s |
| Oc1cc2c(cc1O)[C@H]1c3ccccc3CN[C@@H]1CC2 | 628 s |
| Cc1ccccc1Oc1nccn2c(=O)n(CC(=O)Nc3ccc(Cl)c(Cl)c3)nc12 | 996 s |
| Cc1nn(CC(=O)NCC2CCCO2)c(=O)c2c(-n3cccc3)n(-c3cccc(F)c3)nc12 (stereo not drawn) | 818 s |

| Structure (SMILES) | RP-LC retention time |
| --- | --- |
| CCOc1ccccc1CNC(=O)C1CCCN(c2nnc(C)c3c(C)n(-c4ccccc4)nc23)C1 (stereo not drawn) | 774 s |
| CCCCn1c(N)c(C(=O)OCC)c2nc3ccccc3nc21 | 613 s |
| CCc1ccc(N2C=C(C(=O)OC)S(=O)(=O)c3ccccc32)cc1 | 942 s |
| NC(=O)c1cnc(-c2ccc(Cl)cc2)n(CC(=O)N2CCCc3ccccc32)c1=O | 986 s |
| COC(=O)c1ccc(NC(=O)Cn2cccc(-c3nc(-c4ccc(F)cc4)no3)c2=O)cc1 | 877 s |
| CC(C)(C)n1c(=O)c2ccc(F)cc2n1CC(=O)N1CCN(c2ccccc2)CC1 | 1180 s |
| CSc1ccccc1CN1CCC(CNC(=O)C2(c3ccccc3)CCOCC2)CC1 | 588 s |
| O=S(=O)(CCc1ccccc1)NCC(O)Cc1ccccc1 (stereo not drawn) | 792 s |
| CCc1ccc(NC(=O)C2CCN(S(=O)(=O)c3cc(-c4noc(CC)n4)cs3)CC2)cc1 | 660 s |
| O=C(NC1CC1)c1ccc(N2CCC(NCc3ccc(C(F)(F)F)cc3)C2)nc1 (stereo not drawn) | 663 s |
| CC(C)n1c(CCNC(=O)c2ccc(Cl)cc2)nc2cccnc21 | 704 s |
| COc1ccccc1OCC(=O)N1CCc2cc(-c3csc(C)n3)ccc21 | 954 s |
| NC(=O)C1CCN(c2nc3ccccc3nc2S(=O)(=O)Cc2ccc(Cl)cc2)CC1 | 876 s |
| CCOc1cc(=O)n2c(c1C(=O)NCCOC)CCCCC2 | 600 s |
| Cc1ccc2[nH]c(=O)c(CCC(=O)NCCN3CCc4ccccc4C3)cc2c1 | 634 s |
| CN(C)S(=O)(=O)N1CCCC1Cc1noc(-c2cccnc2)n1 (stereo not drawn) | 746 s |
| O=C(c1ccc2ncccc2c1)N1CCC(c2nc(C3CC3)n[nH]2)CC1 | 491 s |
| COC(=O)c1cc(C)nc2c1c(=O)n(Cc1cccc(F)c1)c(=O)n2Cc1ccco1 | 1100 s |
| CCC1CCCCN1C(=O)c1cnc2nc(C)ccc2c1Nc1ccc(C)c(C)c1 (stereo not drawn) | 702 s |
| CC(=O)N1c2ccc(S(=O)(=O)N3CCCC3)cc2CC1C(=O)NC1CCCCCCC1 (stereo not drawn) | 907 s |
| Fc1ccc(F)c(CN2CC(Oc3ccc(-c4noc(-c5ccncc5)n4)cc3)C2)c1 | 726 s |
| CCc1ccccc1NS(=O)(=O)c1c(C)sc(C)c1-c1cc(C(F)(F)F)on1 | 1240 s |
| COc1ccc2nc([S@](=O)Cc3ncc(C)c(OC)c3C)[nH]c2c1 | 664 s |

Further lines, results first:

| RP-LC retention time | Structure (SMILES) |
| --- | --- |
| 854 s | COCCCNC(=O)C(C)n1c(=O)c(C(F)(F)F)nc2ccccc21 (stereo not drawn) |
| 755 s | CCc1cccc(NC(=O)Cn2cnc3nc(N4CCCC(C(=O)NC(C)C)C4)sc3c2=O)c1 (stereo not drawn) |
| 647 s | Nc1nnc(-c2ccc(Br)cc2)o1 |
| 819 s | COc1ccc(Cc2cnc(NC(=O)C3Cc4ccccc4C(=O)O3)s2)cc1 (stereo not drawn) |
| 805 s | COc1ccccc1NC(=O)C1CCCN1S(=O)(=O)c1cc2c(cc1Cl)NC(=O)CO2 (stereo not drawn) |
| 773 s | Cc1c(Cl)cccc1NC(=O)NCC(c1cccnc1)c1cn(C)c2ccccc12 (stereo not drawn) |
| 626 s | Cc1nc2sccn2c1-c1nnc(SCc2ccc([N+](=O)[O-])cc2)n1C |
| 615 s | Cc1ccc(NC(=O)N2CCN(c3cc(-c4ccncc4)[nH]n3)CC2)c(C)c1 |
| 572 s | O=C(O)c1cc(-c2ccncc2)nc2ccccc12 |
| 764 s | CN(C)C(=O)c1cc2c(s1)CCC(C(=O)Nc1ccc3c(c1)OCCO3)C2 (stereo not drawn) |
| 607 s | O=C(NC1CC(=O)N(C2CC2)C1)c1cc(-c2ccccc2)n[nH]1 (stereo not drawn) |
| 693 s | Clc1ccc(CNc2nnc(N3CCOCC3)c3ccccc23)cc1 |
| 717 s | COc1cc(Cl)c(NC(=O)CN2C(=O)CN(C)C(=O)c3ccccc32)c(OC)c1 |
| 649 s | Cc1noc(C)c1Cc1ccc(C(=O)N2CCCC(c3[nH]ccc3C(N)=O)C2)o1 (stereo not drawn) |
| 758 s | Cc1ccccc1NS(=O)(=O)c1cc2n(c1)CCN(C(C)C)C2=O |
| 1120 s | Cc1cccc(C)c1-n1ccn(Cc2nc(-c3ccc(C(C)(C)C)cc3)no2)c(=O)c1=O |
| 1420 s | O=C(CSc1ncc(-c2ccccc2)[nH]1)Nc1nc(-c2ccc(C3CCCCC3)cc2)cs1 |
| 983 s | COCCOC1CCC12CCN(S(=O)(=O)c1ccccc1C)CC2 (stereo not drawn) |
| 760 s | Cc1oc(C2CCN(S(=O)(=O)c3ccc(C#N)cc3)CC2)nc1C(=O)N1CCOCC1 |
| 710 s | Cc1cc(N2CCN(c3ccccc3)CC2)nc2ccccc12 |
| 777 s | COc1ccc(NS(=O)(=O)c2ccc(/C=C\c3onc(C)c3NC(C)=O)cc2)c(OC)c1 |

| RP-LC retention time | Structure (SMILES) |
| --- | --- |
| 794 s | CCOC(=O)c1c(C)[nH]c(C)c1S(=O)(=O)N1CCC(C(=O)NCCc2sccc2C)CC1 |
| 741 s | COc1ccc(C(=O)N2CCN(c3cc(-c4cccs4)[nH]n3)CC2)cc1OC |
| 678 s | CCn1c(C2CCN(C(=O)c3ccc(Br)o3)C2)nc2cccnc21 (stereo not drawn) |
| 1300 s | Cc1ccc(-n2nc(C)c3sc(N4CCCC(C(=O)NC(C)CCc5ccccc5)C4)nc32)cc1 (stereo not drawn) |
| 659 s | O=C(NCCCN1CCc2ccccc2C1)c1noc2c1CCCC2 |
| 765 s | O=C(Nc1cccc(C(F)(F)F)c1)N1CCCC1c1nncn1C1CCCC1 (stereo not drawn) |
| 669 s | Cc1nnc(N2CCC(C(=O)N3CCOCC3)CC2)c2nn(-c3ccc(Cl)cc3)c(C)c12 |
| 855 s | O=C(NC1CCCCC1)C1CCCN(C(=O)c2ccc(Cl)cc2)C1 (stereo not drawn) |
| 648 s | O=C1COc2cccnc2N1 |
| 1000 s | CCOc1ccc(-n2c(=O)c3sccc3n(Cc3nc(-c4cccc(OC)c4)no3)c2=O)cc1 |
| 996 s | O=C(Nc1ccc(F)cc1)C1CCCN(c2nc3ccsc3c(=O)n2Cc2ccc(F)cc2)C1 (stereo not drawn) |
| 664 s | COc1ccc(-c2nnc(N3CCC(C(=O)N4CCOCC4)CC3)o2)cc1 |
| 767 s | O=S(=O)(c1ccc(-c2cnc(C3CCC3)o2)s1)N1CCN(c2ccccn2)CC1 |
| 604 s | CC(C)n1cnc2cc(CNC(=O)Cc3c[nH]c4ccccc34)ccc21 |
| 608 s | COc1ncc(C(=O)NCCc2ccc(S(N)(=O)=O)cc2)cn1 |
| 844 s | CCOc1ccc(NC(=O)CSC2=C(C#N)C(c3cccs3)CC(=O)N2)cc1 (stereo not drawn) |
| 884 s | Cc1ccc(NC(=O)Cn2nc3c(N4CC(C)CC(C)C4)nccn3c2=O)cc1 (stereo not drawn) |
| 1020 s | CCCn1cc(C(=O)Nc2ccc(OC)c(OC)c2)c(=O)c2ccc(C)nc21 |
| 1070 s | CCOC(=O)c1noc2nc(C)nc(N3CCN(c4ccc(F)cc4)CC3)c12 |
| 578 s | O=C(NC1CCN(c2cc(N3CCCC3)cnn2)C1)C1CC1 (stereo not drawn) |
